Measurements as given in ChEMBL document CHEMBL1126234, “Rigid analogs of acetylcholine can be m1-selective agonists: implications for a rational treatment strategy in Alzheimer's disease” (Bioorg Med Chem Lett, 1992).
Numbering of substitutions follows the chain as printed.

Legend:
Type in all cases: functional, cell-based
[1] = target: T1, Muscarinic acetylcholine receptor M1 (Homo sapiens) (UniProt P11229); test: Percent increase in forskolin-stimulated cAMP accumulation using CHO cells, stably transfected with human muscarinic m1 acetylcholine receptor (AChR)
T1 sequence (whole entry): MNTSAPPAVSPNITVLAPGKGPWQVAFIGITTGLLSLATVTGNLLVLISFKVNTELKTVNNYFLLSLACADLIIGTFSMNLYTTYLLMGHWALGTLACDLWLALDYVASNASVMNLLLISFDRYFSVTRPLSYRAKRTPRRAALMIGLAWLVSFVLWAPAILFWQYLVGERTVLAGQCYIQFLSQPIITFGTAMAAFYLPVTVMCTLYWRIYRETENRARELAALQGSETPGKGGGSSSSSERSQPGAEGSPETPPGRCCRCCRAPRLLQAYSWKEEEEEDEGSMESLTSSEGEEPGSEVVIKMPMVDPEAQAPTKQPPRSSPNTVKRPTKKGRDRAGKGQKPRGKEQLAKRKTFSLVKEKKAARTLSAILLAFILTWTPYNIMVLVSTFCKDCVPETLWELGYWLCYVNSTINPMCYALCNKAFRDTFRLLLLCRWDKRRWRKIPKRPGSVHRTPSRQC

[2] = target: Muscarinic acetylcholine receptor M3 (Homo sapiens) (UniProt P20309); test: Percent increase in intracellular calcium ion concentration ([Ca2+]i) using CHO cells, stably transfected with human muscarinic m3 acetylcholine receptor (AChR)
Chain of Muscarinic acetylcholine receptor M3 (Homo sapiens) (P20309 whole entry, looked up): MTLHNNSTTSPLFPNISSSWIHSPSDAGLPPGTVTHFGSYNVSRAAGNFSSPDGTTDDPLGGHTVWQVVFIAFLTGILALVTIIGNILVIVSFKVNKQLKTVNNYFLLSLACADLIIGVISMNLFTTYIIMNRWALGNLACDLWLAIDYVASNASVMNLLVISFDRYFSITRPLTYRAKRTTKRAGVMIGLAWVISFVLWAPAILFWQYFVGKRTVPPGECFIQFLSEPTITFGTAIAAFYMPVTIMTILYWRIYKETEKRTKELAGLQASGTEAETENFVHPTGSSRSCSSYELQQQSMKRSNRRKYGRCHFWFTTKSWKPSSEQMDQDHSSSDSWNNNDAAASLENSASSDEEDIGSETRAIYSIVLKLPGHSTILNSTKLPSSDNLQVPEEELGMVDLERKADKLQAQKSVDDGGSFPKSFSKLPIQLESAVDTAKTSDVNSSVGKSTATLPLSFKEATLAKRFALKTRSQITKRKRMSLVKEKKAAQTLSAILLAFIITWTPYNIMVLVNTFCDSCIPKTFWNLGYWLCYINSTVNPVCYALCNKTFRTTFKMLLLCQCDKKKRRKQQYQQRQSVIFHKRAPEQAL

[3] = target: T2, Muscarinic acetylcholine receptor M2 (Homo sapiens) (UniProt P08172); test: Percent increase in intracellular calcium ions concentration ([Ca2+]i) using CHO cells, stably transfected with human muscarinic m2 acetylcholine receptor (AChR)
T2 sequence (whole entry): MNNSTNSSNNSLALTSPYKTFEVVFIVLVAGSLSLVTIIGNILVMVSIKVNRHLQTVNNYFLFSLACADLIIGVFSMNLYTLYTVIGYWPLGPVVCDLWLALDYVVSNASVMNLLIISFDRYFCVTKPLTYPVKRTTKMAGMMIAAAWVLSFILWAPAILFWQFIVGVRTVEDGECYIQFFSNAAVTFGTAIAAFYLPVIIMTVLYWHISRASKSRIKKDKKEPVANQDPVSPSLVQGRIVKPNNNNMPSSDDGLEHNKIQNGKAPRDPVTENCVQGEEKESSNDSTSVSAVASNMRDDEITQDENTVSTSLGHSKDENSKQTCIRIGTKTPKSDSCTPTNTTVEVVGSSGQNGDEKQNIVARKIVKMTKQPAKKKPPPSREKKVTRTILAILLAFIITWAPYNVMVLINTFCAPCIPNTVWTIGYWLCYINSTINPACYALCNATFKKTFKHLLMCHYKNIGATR

[4] = target: T1, Muscarinic acetylcholine receptor M1 (Homo sapiens); test: Percent increase in intracellular calcium ions concentration ([Ca2+]i) using CHO cells, stably transfected with human muscarinic m1 acetylcholine receptor (AChR)
[5] = target: Muscarinic acetylcholine receptor M3 (Rattus norvegicus) (UniProt P08483); test: Percent increase in Arachidonic acid (AA) release using CHO cells, stably transfected with rat muscarinic m3 acetylcholine receptor (AChR)
Chain of Muscarinic acetylcholine receptor M3 (Rattus norvegicus) (P08483 whole entry, looked up): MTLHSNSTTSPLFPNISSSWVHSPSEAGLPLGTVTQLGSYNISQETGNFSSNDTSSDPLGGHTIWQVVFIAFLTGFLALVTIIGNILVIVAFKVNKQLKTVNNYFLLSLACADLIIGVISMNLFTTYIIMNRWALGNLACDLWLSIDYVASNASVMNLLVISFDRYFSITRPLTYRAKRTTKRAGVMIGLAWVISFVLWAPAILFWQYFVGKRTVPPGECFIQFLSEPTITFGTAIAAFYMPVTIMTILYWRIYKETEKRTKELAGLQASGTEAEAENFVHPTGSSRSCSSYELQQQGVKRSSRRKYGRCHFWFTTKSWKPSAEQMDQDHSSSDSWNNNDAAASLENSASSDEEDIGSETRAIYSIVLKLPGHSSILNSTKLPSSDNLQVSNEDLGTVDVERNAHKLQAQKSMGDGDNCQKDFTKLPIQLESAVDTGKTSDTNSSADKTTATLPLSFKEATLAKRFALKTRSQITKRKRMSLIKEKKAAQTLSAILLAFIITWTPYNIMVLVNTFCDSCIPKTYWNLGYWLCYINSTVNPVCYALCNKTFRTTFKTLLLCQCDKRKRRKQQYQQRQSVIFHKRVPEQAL

[6] = target: Muscarinic acetylcholine receptor M3 (Homo sapiens) (UniProt P20309); test: Percent increase in forskolin-stimulated cAMP accumulation using CHO cells, stably transfected with human muscarinic m3 acetylcholine receptor (AChR)
[7] = target: Muscarinic acetylcholine receptor M3 (Homo sapiens) (UniProt P20309); test: Percent increase in phosphoinositides (PI) hydrolysis using CHO cells, stably transfected with human muscarinic m3 acetylcholine receptor (AChR)
[8] = target: T3, Muscarinic acetylcholine receptor M5 (Homo sapiens) (UniProt P08912); test: Percent increase in phosphoinositides (PI) hydrolysis using CHO cells, stably transfected with human muscarinic m5 acetylcholine receptor (AChR)
T3 sequence (whole entry): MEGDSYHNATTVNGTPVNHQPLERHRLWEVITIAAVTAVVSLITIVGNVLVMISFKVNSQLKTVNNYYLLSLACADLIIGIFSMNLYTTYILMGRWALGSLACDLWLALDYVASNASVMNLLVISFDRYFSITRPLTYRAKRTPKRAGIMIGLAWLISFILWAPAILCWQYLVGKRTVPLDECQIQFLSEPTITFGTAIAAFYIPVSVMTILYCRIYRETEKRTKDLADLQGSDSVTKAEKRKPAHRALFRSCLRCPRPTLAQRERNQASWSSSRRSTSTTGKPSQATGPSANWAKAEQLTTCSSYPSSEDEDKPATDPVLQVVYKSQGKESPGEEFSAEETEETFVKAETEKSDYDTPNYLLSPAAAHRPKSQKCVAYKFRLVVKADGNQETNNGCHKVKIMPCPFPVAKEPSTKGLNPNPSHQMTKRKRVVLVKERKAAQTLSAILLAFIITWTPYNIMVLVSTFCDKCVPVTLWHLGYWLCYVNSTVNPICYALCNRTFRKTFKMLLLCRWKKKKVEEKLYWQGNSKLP

[9] = target: T4, Muscarinic acetylcholine receptor M1 (Rattus norvegicus) (UniProt P08482); test: Percent increase in Arachidonic acid (AA) release using CHO cells, transfected with rat muscarinic m1 acetylcholine receptor (AChR)
T4 sequence (whole entry): T1 sequence (whole entry) with A5V, T254S, P309S, R320K, A337G, I413V

[10] = target: T5, Muscarinic acetylcholine receptor M4 (Homo sapiens) (UniProt P08173); test: Percent increase in intracellular calcium ion concentration ([Ca2+]i) using CHO cells, stably transfected with human muscarinic m4 acetylcholine receptor (AChR)
T5 sequence (whole entry): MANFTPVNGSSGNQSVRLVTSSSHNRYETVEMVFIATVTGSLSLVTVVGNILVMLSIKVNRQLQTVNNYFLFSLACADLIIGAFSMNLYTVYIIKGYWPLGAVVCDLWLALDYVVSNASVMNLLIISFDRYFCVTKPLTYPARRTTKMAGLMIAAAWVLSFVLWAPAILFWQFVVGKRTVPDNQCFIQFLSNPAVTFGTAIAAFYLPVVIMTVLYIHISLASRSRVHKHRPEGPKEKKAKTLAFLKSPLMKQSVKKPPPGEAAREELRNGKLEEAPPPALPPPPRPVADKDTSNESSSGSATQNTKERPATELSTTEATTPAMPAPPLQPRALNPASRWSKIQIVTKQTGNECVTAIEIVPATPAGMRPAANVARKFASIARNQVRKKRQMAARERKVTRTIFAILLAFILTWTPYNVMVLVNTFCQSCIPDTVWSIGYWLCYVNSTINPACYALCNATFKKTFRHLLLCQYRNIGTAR

[11] = target: T1, Muscarinic acetylcholine receptor M1 (Homo sapiens); test: Percent increase in phosphoinositides (PI) hydrolysis using chinese hamster ovary (CHO) cells, stably transfected with human muscarinic m1 acetylcholine receptor (AChR)
[12] = target: T2, Muscarinic acetylcholine receptor M2 (Homo sapiens); test: Percent increase in forskolin-stimulated cAMP accumulation using CHO cells, transfected with human muscarinic m2 acetylcholine receptor (AChR)
[13] = target: T3, Muscarinic acetylcholine receptor M5 (Homo sapiens); test: Percent increase in intracellular calcium ions concentration ([Ca2+]i) using CHO cells, stably transfected with human muscarinic m5 acetylcholine receptor (AChR)
[14] = target: T1, Muscarinic acetylcholine receptor M1 (Homo sapiens); test: Percent increase in Arachidonic acid (AA) release using CHO cells, transfected with human muscarinic m1 acetylcholine receptor (AChR)
[15] = target: T3, Muscarinic acetylcholine receptor M5 (Homo sapiens); test: Percent increase in Arachidonic acid (AA) release using CHO cells, stably transfected with human muscarinic m5 acetylcholine receptor (AChR)
[16] = target: Muscarinic acetylcholine receptor M3 (Homo sapiens) (UniProt P20309); test: Percent increase in Arachidonic acid (AA) release using CHO cells, stably transfected with human muscarinic m3 acetylcholine receptor (AChR)

SMILES | Increase [1] [%] | Increase [2] [%] | Increase [3] [%] | Increase [4] [%] | Increase [5] [%] | Increase [6] [%] | Increase [7] [%] | Increase [8] [%] | Increase [9] [%] | Increase [10] [%] | Increase [11] [%] | Increase [12] [%] | Increase [13] [%] | Increase [14] [%] | Increase [15] [%] | Increase [16] [%]
CC1=NCC2(CCN(C)CC2)O1 | 6 | 130 | 12 | 60 | 27 | 10 | 76 | 28 | 90 | 10 | 85 | 74 | 78 | – | – | –
C[C@@H]1OC2(CS1)CN1CCC2CC1 (some centres undefined) | 1 | 86 | 17 | 79 | – | 0.8 | 10 | 4 | – | 3 | 43 | 60 | 32 | 68 | 4 | 11
C[N+](C)(C)CC#CCOC(=O)Nc1cccc(Cl)c1 | 7 | – | – | – | – | 7 | 7 | 24 | – | – | 89 | 9.5 | – | 90 | 34 | 13
CC1=NC2(CCN(C)CC2)CO1 | – | 132 | 9 | 85 | 36 | 4 | 84 | 79 | 61 | 10 | 102 | 70 | 80 | 3 | – | –
